Structures can show the parent of a compound that is named as a salt.
How the values were obtained:
[1] = test system: NCI-H292 lung cancer cells; experiment: FDA drug screening, complete media vs cholesterol-free media without statin (TABLE 1); format: cell-based, human
[2] = test system: NCI-H292 lung cancer cells; experiment: FDA drug screening, complete media vs cholesterol-free media with simvastatin (TABLE 2); format: cell-based, human; settings: for Cholesterol-free media + simvastatin (0.04 μM) / Complete Media: NCI-H292 cells
[3] = Complete minus Cholesterol-free, greater than 0 enhanced anti-cancer activity, about 0 neutral, below 0 antagonist
[4] = NCI-H292 cells, FDA drug library screen, cholesterol-free media without statin
[5] = NCI-H292 cells, FDA drug library screen, complete media
[6] = FDA drug library screen, cholesterol-free media with simvastatin 0.04 μM
[7] = FDA drug library screen, complete media
[8] = complete media vs cholesterol-free media + simvastatin (0.04 μM), >0 enhanced anti-cancer activity, about 0 neutral, <0 antagonist
[9] = Complete minus Cholesterol-free, >0 enhanced anti-cancer activity, about 0 neutral, <0 antagonist
[10] = NCI-H292 cells, cholesterol-free media without statin
[11] = cholesterol-free media with simvastatin 0.04 μM, FDA drug library screen (TABLE 2)
[12] = complete media, FDA drug library screen (TABLE 2)
[13] = complete media minus cholesterol-free media + simvastatin (0.04 μM), >0 enhanced anti-cancer activity, about 0 neutral, <0 antagonist
[14] = NCI-H292 cells, cholesterol-free media without statin, FDA drug library screen
[15] = NCI-H292 cells, complete media, FDA drug library screen
[16] = FDA library drug in cholesterol-free media with simvastatin 0.04 μM
[17] = FDA library drug in complete media
[18] = complete vs cholesterol-free media, >0 enhanced anti-cancer activity, about 0 neutral, <0 antagonist
[19] = Complete minus Cholesterol-free, greater than 0 enhanced anti-cancer activity, about 0 neutral, below 0 antagonists
[20] = NCI-H292 cells in cholesterol-free media without statin
[21] = NCI-H292 cells in complete media
[22] = complete media minus cholesterol-free media + simvastatin, >0 enhanced anti-cancer activity, about 0 neutral, <0 antagonist
[23] = cholesterol-free media with simvastatin 0.04 μM, cell growth value in FDA drug screen
[24] = complete media, cell growth value in FDA drug screen
[25] = drug in cholesterol-free media with simvastatin 0.04 μM
[26] = complete vs cholesterol-free media, greater than 0 enhanced anti-cancer activity, about 0 neutral, below 0 antagonists

Compound	Cholesterol-free media + simvastatin (0.04 μM) [2, 6]	Complete Media [2, 7]	Difference [2, 8]	Difference [1, 9]	Cholesterol-free [1, 10]	Complete ([1]; NCI-H292 cells, complete media)	Cholesterol-free [1, 14]	Complete [1, 15]	also measured
NC(=O)c1ncn([C@@H]2O[C@H](CO)[C@@H](O)[C@H]2O)c1O [Mizoribine]	1.118	0.9745	−0.14						Difference [1, 3]: −0.10; Cholesterol-free [1, 4]: 0.879; Complete [1, 5]: 0.7795
O=C(NCCN1CCOCC1)c1ccc(Cl)cc1 [Moclobemide]				−0.27	1.09	0.8213			Cholesterol-free media + simvastatin (0.04 μM) [2, 11]: 0.9196; Complete Media [2, 12]: 0.8957; Difference [2, 13]: −0.02
CCOC(=O)[C@H](CCc1ccccc1)N[C@@H](C)C(=O)N1Cc2cc(OC)c(OC)cc2C[C@H]1C(=O)O [Moexipril (hydrochloride)]			−0.37	0.02			1.004	1.024	Cholesterol-free media + simvastatin (0.04 μM) [2, 16]: 1.452; Complete Media [2, 17]: 1.081
CCOC(=O)CC(=O)N1CCSC1COc1ccccc1OC (stereo not drawn) [Moguisteine]							0.7084	1.262	Difference [1, 18]: 0.55; Cholesterol-free media + simvastatin (0.04 μM) [2, 11]: 0.9351; Complete Media [2, 12]: 0.879; Difference [2, 13]: −0.06
CCc1c(C)[nH]c2c1C(=O)C(CN1CCOCC1)CC2 (stereo not drawn) [Molindone (hydrochloride)]	0.9443	0.8609	−0.08	−0.28	1.138	0.8619			
CCOC(=O)[N-]c1cn(N2CCOCC2)n[o+]1 [Molsidomine]	1.15	1.6							Difference [1, 19]: −0.60; Cholesterol-free [1, 20]: 1.343; Complete [1, 21]: 0.7419; Difference [2, 22]: 0.45
C[C@@H]1C[C@H]2[C@@H]3CCC4=CC(=O)C=C[C@]4(C)[C@@]3(Cl)[C@@H](O)C[C@]2(C)[C@@]1(OC(=O)c1ccco1)C(=O)CCl [Mometasone furoate]				−0.24	0.8128	0.5699			Cholesterol-free media + simvastatin (0.04 μM) [2, 23]: 0.7611; Complete Media [2, 24]: 0.8877; Difference [2, 22]: 0.13
Oc1ccc(OCc2ccccc2)cc1 [Monobenzone]	1.226	1.137	−0.09						Difference [1, 19]: −0.87; Cholesterol-free [1, 20]: 1.95; Complete [1, 21]: 1.077
C[C@H]1C(=O)O[C@@H]2CCN3CC=C(COC(=O)[C@](C)(O)[C@]1(C)O)[C@H]23 [Monocrotaline]									Difference ([1]; Complete minus Cholesterol-free, […]): −0.18; Cholesterol-free [1, 4]: 1.01; Complete [1, 5]: 0.8289; Cholesterol-free media + simvastatin (0.04 μM) [2, 25]: 1.209; Complete Media ([2]; drug in complete media): 1.046; Difference ([2]; complete media vs cholesterol-free media + simvastatin (0.04 μM), […]): −0.16
CC(C)(O)c1ccccc1CC[C@@H](SCC1(CC(=O)O)CC1)c1cccc(/C=C/c2ccc3ccc(Cl)cc3n2)c1 [Montelukast (sodium)]									Difference [1, 19]: −0.51; Cholesterol-free [1, 20]: 1.599; Complete [1, 21]: 1.09; Cholesterol-free media + simvastatin (0.04 μM) [2, 23]: 0.8464; Complete Media [2, 24]: 0.9746; Difference [2, 22]: 0.13
Cc1ncc([N+](=O)[O-])n1CC(O)CN1CCOCC1 (stereo not drawn) [Morinidazole (R enantiomer)]	1.178	1.022	−0.16	−0.04			1.104	1.064	
Cc1ncc([N+](=O)[O-])n1CC(O)CN1CCOCC1 (stereo not drawn) [Morinidazole]	1.535	1.676			1.15	0.8164			Difference [1, 26]: −0.33; Difference [2, 22]: 0.14
N=C(N)/N=C(\N)N1CCOCC1 [Moroxydine (hydrochloride)]			−0.16		1.172	0.8572			Difference [1, 26]: −0.32; Cholesterol-free media + simvastatin (0.04 μM) [2, 25]: 1.02; Complete Media ([2]; drug in complete media): 0.8563
CO[C@@]1(NC(=O)C(C(=O)O)c2ccc(O)cc2)C(=O)N2C(C(=O)O)=C(CSc3nnnn3C)CO[C@@H]21 (stereo partly drawn) [Moxalactam (sodium salt)]			−0.90						Difference [1, 19]: −0.79; Cholesterol-free [1, 20]: 1.849; Complete [1, 21]: 1.058; Cholesterol-free media + simvastatin (0.04 μM) [2, 16]: 1.994; Complete Media [2, 17]: 1.097
CO/N=C1\C[C@]2(C[C@@H]3C[C@@H](C/C=C(\C)C[C@@H](C)/C=C/C=C4\CO[C@@H]5[C@H](O)C(C)=C[C@@H](C(=O)O3)[C@]45O)O2)O[C@H](/C(C)=C/C(C)C)[C@H]1C [Moxidectin]			−0.17	−0.21	0.4893	0.2816			Cholesterol-free media + simvastatin (0.04 μM) [2, 25]: 0.8625; Complete Media ([2]; drug in complete media): 0.6882
CC(=O)Oc1cc(C(C)C)c(OCCN(C)C)cc1C [Moxisylyte (hydrochloride)]			−0.17	0.07			1.028	1.096	Cholesterol-free media + simvastatin (0.04 μM) [2, 25]: 1.237; Complete Media ([2]; drug in complete media): 1.071
COc1nc(C)nc(Cl)c1N=C1NCCN1 [Moxonidine]				0.05			0.9137	0.9657	Cholesterol-free media + simvastatin (0.04 μM) [2, 23]: 0.8373; Complete Media [2, 24]: 0.9283; Difference [2, 22]: 0.09
Cc1ccccc1C(=O)Nc1ccc(C(=O)N2CCCC(N(C)C)c3ccccc32)cc1 (stereo not drawn) [Mozavaptan (hydrochloride)]									Difference [1, 19]: −0.56; Cholesterol-free [1, 20]: 1.248; Complete [1, 21]: 0.6877; Cholesterol-free media + simvastatin (0.04 μM) [2, 23]: 1.17; Complete Media [2, 24]: 1.196; Difference [2, 22]: 0.03
Cc1ccccc1C(=O)Nc1ccc(C(=O)N2CCCC(N(C)C)c3ccccc32)cc1 (stereo not drawn) [Mozavaptan]			−0.28	−0.20	0.8282	0.6332			Cholesterol-free media + simvastatin (0.04 μM) [2, 16]: 1.121; Complete Media [2, 17]: 0.8375
C/C(=C\C(=O)OCCCCCCCCC(=O)O)C[C@@H]1OC[C@H](C[C@@H]2O[C@H]2[C@@H](C)[C@H](C)O)[C@@H](O)[C@H]1O [Mupirocin]			−0.38				0.7089	1.063	Difference [1, 18]: 0.35; Cholesterol-free media + simvastatin (0.04 μM) [2, 16]: 1.454; Complete Media [2, 17]: 1.069
COc1c(C)c2c(c(O)c1C/C=C(\C)CCC(=O)OCCN1CCOCC1)C(=O)OC2 [Mycophenolate Mofetil]	0.7059	0.6206	−0.09	−0.01			0.3372	0.3232	
COc1c(C)c2c(c(O)c1C/C=C(\C)CCC(=O)O)C(=O)OC2 [Mycophenolic acid]			−0.22	−0.06			0.346	0.2837	Cholesterol-free media + simvastatin (0.04 μM) [2, 25]: 0.743; Complete Media ([2]; drug in complete media): 0.5199
CC(=O)N[C@@H](Cc1ccc(O)cc1)C(=O)O [N-Acetyl-L-tyrosine]	1.348	1.218	−0.13						Difference [1, 3]: −0.16; Cholesterol-free [1, 4]: 1.221; Complete [1, 5]: 1.059

— patent publication US20250144067A1, “PERSONALIZED STARVATION THERAPY FOR CANCER” (Faeth Therapeutics, Inc., priority 2021, published 2025)
